Where two headings read alike, the source gives them in different places.
Legend:
Format in all cases: cell-based
[1] = test system: Candida albicans (C. albicans—ATCC 10231); experiment: Synergy test, microtiter plate high resolution MIC assay, yeast; conditions: for SI (synergy index, Qa/QA+Qb/QB): <1 synergism, 1 additivity, >1 antagonism; for MIC: Candida albicans, read-out: MIC of the microbicide acting alone (QA or QB)
Procedure: (§1) When the sum of Qa/QA and Qb/QB is greater than one, antagonism is indicated. […] The lower the SI, the greater the synergy shown by that particular mixture. The minimum inhibitory concentration (MIC) of a microbicide is the lowest concentration tested under a specific set of conditions that prevents the growth of added microorganisms.
(§2) Synergy tests were conducted using standard microtiter plate assays with media designed for optimal growth of the test microorganism. Minimal salt medium supplemented with 0.2% glucose and 0.1% yeast extract (M9GY medium) was used for testing bacteria; Potato Dextrose Broth (PDB medium) was used for testing yeast and mold. In this method, a wide range of combinations of microbicides was tested by conducting high resolution MIC assays in the presence of various concentrations of MI. High resolution MICs were determined by adding varying amounts of microbicide to one column of a microtitre plate and doing subsequent ten-fold dilutions using an automated liquid handling system to obtain a series of endpoints ranging from 2 ppm to 10,000 ppm active ingredient. […] The bacteria were used at a concentration of about 5×10^6 bacteria per mL and the yeast and mold at 5×10^5 fungi per mL. These microorganisms are representative of natural contaminants in many consumer and industrial applications. […] (yeast and mold) or 30° C. (bacteria).
(§3) In each test, First Component (A) was MI and the Second Component (B) was the other commercial microbicide.

[2] = test system: Aspergillus niger (A. niger—ATCC 16404); experiment: Synergy test, microtiter plate high resolution MIC assay, mold; conditions: for SI (synergy index, Qa/QA+Qb/QB): <1 synergism, 1 additivity, >1 antagonism; for MIC: Aspergillus niger, read-out: MIC of the microbicide acting alone (QA or QB)
Procedure: as §1, §2, §3

[3] = test system: Pseudomonas aeruginosa (P. aeruginosa—ATCC #9027); experiment: Synergy test, microtiter plate high resolution MIC assay, Gram (−) bacteria; conditions: for SI (synergy index, Qa/QA+Qb/QB): <1 synergism, 1 additivity, >1 antagonism; for MIC: Pseudomonas aeruginosa, read-out: MIC of the microbicide acting alone (QA or QB)
Procedure: as §1, §2, §3

[4] = test system: Staphylococcus aureus (S. aureus—ATCC #6538); experiment: Synergy test, microtiter plate high resolution MIC assay, Gram (+) bacteria; conditions: for SI (synergy index, Qa/QA+Qb/QB): <1 synergism, 1 additivity, >1 antagonism; for MIC: Staphylococcus aureus
Procedure: as §1, §2, §3

[5] = ATCC10231, C. albicans, 72 hours, PDB medium, 25° C.
[6] = ATCC16404, 168 h, A. niger, 1 week, PDB medium, 25° C.
[7] = ATCC9027, P. aeruginosa, 24 hours, M9GY medium, 30° C.
[8] = ATCC6538, S. aureus, 72 hours, M9GY medium, 30° C., read-out: MIC of the microbicide acting alone (QA or QB)
[9] = ATCC6538, 72 h, read-out: MIC of the microbicide acting alone (QA or QB), S. aureus, 72 hours, M9GY medium, 30° C.
[10] = ATCC9027, P. aeruginosa, 48 hours, M9GY medium, 30° C.
[11] = ATCC6538, S. aureus, 24 hours, M9GY medium, 30° C., read-out: MIC of the microbicide acting alone (QA or QB)

Row | Compound | SI (synergy index, Qa/QA+Qb/QB) ([1]; C. albicans, 72 hours) | MIC [1, 5] [µg/mL] | SI (synergy index, Qa/QA+Qb/QB) ([2]; A. niger, 1 week) | MIC [2, 6] [µg/mL] | SI (synergy index, Qa/QA+Qb/QB) ([3]; P. aeruginosa, 24 hours) | MIC [3, 7] [µg/mL] | SI (synergy index, Qa/QA+Qb/QB) ([4]; S. aureus, 72 hours) | MIC [4, 8] [µg/mL] | SI (synergy index, Qa/QA+Qb/QB) ([1]; C. albicans, 48 hours) | SI (synergy index, Qa/QA+Qb/QB) ([3]; P. aeruginosa, 72 hours) | further results
1 | N#CCCC(Br)(C#N)CBr (stereo not shown) [1,2-dibromo-2,4-dicyanobutane] | 1.00 | 500 | 1.00 | 100 | 1.00 | 800 | 1.00 | 1000 | – | – | –
2 | CC1(C)C(=O)N(CO)C(=O)N1CO [1,3-dimethylol-5,5-dimethylhydantoin] | 1.00 | 3000 | 1.00 | 3000 | 1.00 | 300 | 1.00 | 200 | – | – | –
3 | Cn1sccc1=O [2-methyl-3-isothiazolone] | 1.00 | – | 1.00 | – | 1.00 | – | 1.00 | – | 1.00 | 1.00 | MIC ([1]; ATCC10231, 48 h): 200 µg/mL; MIC ([1]; ATCC10231, 72 h): 200 µg/mL; SI (synergy index, Qa/QA+Qb/QB) ([2]; A. niger, 72 hours): 1.00; SI (synergy index, Qa/QA+Qb/QB) ([2]; A. niger, 96 hours): 1.00; MIC ([2]; ATCC16404, 72 h): 300 µg/mL; MIC ([2]; ATCC16404, 96 h): 300 µg/mL; MIC ([2]; ATCC16404, 168 h): 300 µg/mL; SI (synergy index, Qa/QA+Qb/QB) ([3]; P. aeruginosa, 48 hours): 1.00; MIC ([3]; ATCC9027, 24 h): 15 µg/mL; MIC ([3]; ATCC9027, 48 h): 20 µg/mL; MIC ([3]; ATCC9027, 72 h): 20 µg/mL; SI (synergy index, Qa/QA+Qb/QB) ([4]; S. aureus, 24 hours): 1.00; MIC ([4]; ATCC6538, 24 h, read-out: MIC of the microbicide acting alone (QA or QB), S. aureus, 24 hours, M9GY medium, 30° C.): 40 µg/mL; MIC [4, 9]: 60 µg/mL
4 | O=C(O)c1ccccc1 [benzoic acid] | – | – | 1.00 | – | – | – | 1.00 | – | 1.00 | 1.00 | MIC ([1]; ATCC10231, 48 h): 5000 µg/mL; MIC ([2]; ATCC16404, 168 h): 10000 µg/mL; MIC ([3]; ATCC9027, 72 h): 6000 µg/mL; MIC [4, 9]: 6000 µg/mL
5 | OCc1ccccc1 [benzyl alcohol] | – | – | – | – | 1.00 | 6000 | 1.00 | 8000 | 1.00 | – | MIC ([1]; ATCC10231, C. albicans, 48 hours, PDB medium, 25° C.): 6000 µg/mL; SI (synergy index, Qa/QA+Qb/QB) ([2]; A. niger, 72 hours): 1.00; MIC ([2]; ATCC16404, A. niger, 72 hours, PDB medium, 25° C.): 8000 µg/mL
6 | O=C(O)CC(O)(CC(=O)O)C(=O)O [citric acid] | – | 10000 | – | 10000 | – | – | – | – | – | – | MIC [3, 10]: 6000 µg/mL; MIC [4, 11]: 4000 µg/mL
7 | CC(C)(C)C(=O)C(Oc1ccc(Cl)cc1)n1ccnc1 (stereo not shown) [climbazole] | 1.00 | 300 | – | – | – | – | – | – | – | – | SI (synergy index, Qa/QA+Qb/QB) ([4]; S. aureus, 24 hours): 1.00; MIC [4, 11]: 2000 µg/mL
8 | C/C=C/C=C/C(=O)O [sorbic acid] | 1.00 | 400 | – | – | – | – | 1.00 | 10000 | – | – | SI (synergy index, Qa/QA+Qb/QB) ([2]; A. niger, 96 hours): 1.00; MIC ([2]; ATCC16404, A. niger, 96 hours, PDB medium, 25° C.): 4000 µg/mL; SI (synergy index, Qa/QA+Qb/QB) ([3]; P. aeruginosa, 48 hours): 1.00; MIC [3, 10]: 10000 µg/mL
9 | zinc pyrithione | – | – | 1.00 | – | – | – | 1.00 | – | 1.00 | 1.00 | MIC of the microbicide acting alone (QA or QB) ([1]; C. albicans, 48 hours, PDB medium, 25° C.): 80 ppm; MIC of the microbicide acting alone (QA or QB) ([2]; A. niger, 1 week, PDB medium, 25° C.): 80 ppm; MIC of the microbicide acting alone (QA or QB) ([3]; P. aeruginosa, 72 hours, M9GY medium, 30° C.): 200 ppm; MIC of the microbicide acting alone (QA or QB) ([4]; S. aureus, 72 hours, M9GY medium, 30° C.): 20 ppm
